“Also recorded” adds a separate entry of the source.
Columns and labels:
[1] = system: mouse model of schizophrenia; assay: Prepulse inhibition (PPI) of the startle reflex; settings: for % inhibition (ability to adjust to sound stimulus, PPI): Study I, age 8 weeks
[2] = system: mouse model of schizophrenia; assay: Behavior in the Phenotyper cage; format: in vivo, mice; settings: Study II
[3] = system: mouse model of schizophrenia; assay: Elevated Plus Maze test; settings: for time spent in the distal end of the opened arm (anxiety): Study I, age 13 weeks
cannabinoid receptor CB2 = cannabinoid receptor CB2 (Homo sapiens, UniProt P34972); settings: cited from earlier work
cannabinoid receptor CB2, sequence (P34972 whole entry): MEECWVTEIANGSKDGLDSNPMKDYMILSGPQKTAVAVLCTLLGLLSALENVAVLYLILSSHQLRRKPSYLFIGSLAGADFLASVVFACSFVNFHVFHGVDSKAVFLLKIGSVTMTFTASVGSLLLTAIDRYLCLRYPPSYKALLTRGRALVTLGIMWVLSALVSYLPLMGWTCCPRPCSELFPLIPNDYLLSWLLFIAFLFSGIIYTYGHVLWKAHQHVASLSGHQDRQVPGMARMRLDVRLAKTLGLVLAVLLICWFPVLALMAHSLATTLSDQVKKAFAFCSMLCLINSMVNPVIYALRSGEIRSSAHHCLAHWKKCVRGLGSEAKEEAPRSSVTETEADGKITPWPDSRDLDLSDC

[4] = system: mouse model of schizophrenia; assay: Open-field test (ambulation/crossing, rearing, grooming)
[5] = Body weight of mice in the neonatal PCP model
[6] = in vivo; cited from earlier work
[7] = orally-administered; cited from earlier work
[8] = Study II, PND 68, saline-treated mice
[9] = Study III: male mice, PND 17, PCP 5 mg/kg, 1 h later BCP 10 mg/kg or BCP+AM630 10 mg/kg each, DMSO-based vehicle

beta-caryophyllene [BCP]
% inhibition (ability to adjust to sound stimulus, PPI) ([1]; females (FIG. 5D)): No significant difference
% inhibition (ability to adjust to sound stimulus, PPI) ([1]; males (FIG. 5B)): reversed this effect; also recorded: significantly reversed the effect of PCP on the sensorimotor-gate in males
response to startle at the end of the PPI test ([1]; Study II, PND 68 (FIGS. 18A-18C)): did not affect the response to startle at the end of the PPI test
pre-pulse inhibition (% PPI) ([1]; Study II, PND 68, PCP-treated mice (FIG. 16A)): significantly reversed the effect of PCP on pre-pulse inhibition; also recorded: reversed the effect of PCP on PPI
response to pre-pulse tones ([1]; Study II, PND 68, PCP-treated mice (FIGS. 17A-17C)): significantly reversed the effect of PCP on response to pre-pulse tones; also recorded: reversed the effect of PCP on the response to tone
startle response ([1]; Study II, PND 68, females (FIG. 16B)): significantly reversed the effect of PCP on startle response in females
response to the startle stimuli ([1]; Study II, PND 68, males (FIG. 16C)): no difference in the response to the startle stimuli between groups
pre-pulse inhibition (% PPI) [1, 8]: no substantial effect on saline-treated mice
response to pre-pulse tones [1, 8]: no effect on saline-treated mice
response to the startle stimuli (120 dB) ([1]; Study II, PND 106 (FIGS. 25A-25C)): no difference in the response to the startle stimuli (120 dB) between groups
response to tones ([1]; Study II, PND 106 (FIGS. 25D-25F)): reversed the effect of PCP on the response to tones
% pre-pulse inhibition (PPI) ([1]; Study II, PND 106 (FIGS. 25G-25I)): reversed the effect of PCP on the % pre-pulse inhibition; also recorded: reversed the effect of PCP on attention at PND106
time spent in the food zone ([2]; PND 91): did not affect the time spend in the food zone
time spent at the drinking zone ([2]; PND 91, compared with PCP-treated group): appeared to reduce the time spend at the drinking zone
frequency of entries to the wheel ([2]; PND 91, females and males): reversed the effects of PCP on the frequency of entries to the wheel; also recorded: reversed the effects of PCP on frequency of entries to the wheel
time spent in the Hidden Zone ([2]; PND 91, females and males): reversed the effects of PCP on the time spend in the Hidden Zone; also recorded: reversed the effects of PCP on the time spent in the hidden zone
frequency of entries to the hidden zone ([2]; PND 91, males (FIG. 20D)): reversed the effect of PCP in males
frequency of entries to the Wheel Zone ([2]; PND 105): appeared to reduce the effect of PCP on the frequency of entries to the Wheel Zone
frequency of entries to the hidden zone ([2]; PND 105): reversed the effects of PCP on the frequency of entries to the hidden zone; also recorded: reversed the effect of PCP on frequency of entries to hidden zone
time spent at the hidden zone ([2]; PND 105): reversed the effects of PCP on the time spend at the hidden zone; also recorded: reversed the effect of PCP on time spent at the hidden zone
time spent in the wheel ([2]; PND 105): showed a trend to reverse the effect of PCP on the time spend in the wheel
time spent in the distal end of the opened arm (anxiety) ([3]; females (FIGS. 6E, 6G)): reversed this effect; also recorded: reversed both effects
time spent in the distal end of the opened arm (anxiety) ([3]; males (FIGS. 6F, 6H)): reversed this effect; also recorded: reversed both effects
behavior in the Plus Maze test ([3]; Study II, PND 64 (FIGS. 19A-19F)): did not reverse the effects of PCP on behavior in the Plus Maze test
activity at CB2 receptor (cannabinoid receptor CB2): CB2-receptor agonist
ambulation ([4]; Study I, DMSO-based carrier, PND 17, males (FIG. 12A)): completely reversed the effects of PCP
rearing behavior ([4]; Study I, DMSO-based carrier, PND 17, males (FIG. 12B)): completely reversed the effects of PCP
rearing ([4]; Study I, ethanol-based vehicle, PND 17 (FIG. 2B)): reversed the effects of PCP on rearing and exploration
ambulation (exploration) ([4]; Study I: PCP 5 mg/kg, BCP 10 mg/kg, ethanol-based vehicle, PND 17 (FIG. 2A)): reversed the effects of PCP on rearing and exploration
ambulation ([4]; Study I, PND 17, females): reversed a proportion of the effects of PCP on ambulation and rearing behavior of female mice
rearing behavior ([4]; Study I, PND 17, females): reversed a proportion of the effects of PCP on ambulation and rearing behavior of female mice
locomotor activity ([4]; Study I, PND 17, males): appeared to be less sensitive to the treatment of PCP or PCP+BCP
rearing and exploration behaviors ([4]; Study I, PND 35-37, females (FIGS. 4E, 4F)): no differences in rearing and exploration behaviors were seen between the different groups
rearing behavior ([4]; Study I, PND 35-37, males (FIG. 4B)): significantly reduced rearing behavior as compared to vehicle and PCP-treated groups
locomotor activity ([4]; Study I, PND 35-37, males (FIG. 4C)): reduced locomotor activity; also recorded: significantly reversed the effect of PCP in males
exploration ([4]; Study II: BCP in adolescence compared with saline-treated mice, PND 63): significantly inhibited the exploration of mice compared with saline-treated mice
ambulation ([4]; Study II: neonatal PCP, BCP 5 mg/kg PND 43-61, PND 63, male and female): significantly reversed the effect of PCP on ambulation in male and female mice
rearing ([4]; Study II, PND 63, females and males (FIGS. 15A-15C)): reversed the effect of PCP on rearing in both females and males
exploratory behavior ([4]; Study II, PND 104, females (last BCP treatment PND 61)): a relapse in exploratory behavior was evident
self-grooming (total, without stimuli) ([4]; Study II, PND 104, females or males): did not reverse the effect of PCP on self-grooming; also recorded: did not reverse the effect of PCT on grooming
exploration ([4]; Study II, PND 104, males): improved exploration and rearing behaviors of male PCP treated mice
rearing behavior ([4]; Study II, PND 104, males): still significantly higher than that of PCP-treated mice with no BCP treatment; also recorded: improved exploration and rearing behaviors of male PCP treated mice
ambulation [4, 9]: reversed the effects of PCP on rearing and exploration
rearing [4, 9]: reversed the effects of PCP on rearing and exploration
body weight ([5]; Study I, BCP 10 mg/kg in DMSO-based vehicle (FIG. 12C)): completely reversed the effect of PCP on body weight
body weight ([5]; Study I, ethanol-based vehicle, PND 7 / first week of life (FIG. 1B)): reversed the reduction in body weight during the first week of life
body weight ([5]; Study I: PCP 5 mg/kg PND 3-16, BCP 10 mg/kg 1 h after PCP, ethanol-based vehicle, each day of injection PND 3-17 (FIG. 1A)): did not restore the weight completely
body weight ([5]; Study I, PND 17 (FIG. 2C)): no significant difference between groups treated with PCP with or without BCP
body weight ([5]; Study I, PND 17, males (FIG. 3A)): appeared to be more prominent
body weight ([5]; Study I, PND 35-37, females (FIG. 4D)): significantly reversed the effect of PCP on female body weight
body weight ([5]; Study I, PND 35-37, males (FIG. 4A)): no significant difference in male body weight between the groups
body weight ([5]; Study II: BCP 5 mg/kg twice a week on PND 43-61 (FIG. 14A)): did not affect body weight
body weight ([5]; Study II, PND 104): did not increase body weight in females and males, rather reduced body weight of PCP+BCP treated group
toxicity [6]: apparent substantial non-toxicity
oral absorption / systemic availability [7]: absorbed by the digestive tract and becomes systemically available

Source: patent publication US11612572B2, “Treatment of schizophrenia using beta-caryophyllene and CB2 receptor agonists” (priority 2012, dated 2023)
